Experiments:
colon cancer tumors = experiment: H&E histology of tumors after SBDPiR690 PDT; format: in vivo, Balb/c mice; conditions: 1 day post treatment
Excerpt: To access the effect of SBDPiR690 on the tumor regions, tumor samples were collected from SBDPiR690 treated and control mice 1 day post treatment. The samples were fixed, embedded, sectioned, and stained using hematoxylin and eosin.

[1] = Real time whole body imaging of SBDPiR690 clearance and biodistribution; set-up: species or system mice; conditions: mouse, in vivo
Experimental: The inherent fluorescent properties of SBDPiR690 enabled its use in real time whole body imaging to evaluate the clearance and biodistribution of the drug in organs, making it an applicable theranostic agent. The drug clears from organs and tissue by 24 hours, reducing the occurrence of skin photo-toxicity, which is a major problem among photosensitizers. […] These findings show the effectiveness of SBDPiR690 as a photosensitizer for use in PDT in clinical setting.

[2] = Optical properties (absorption, emission, extinction coefficient) of BDP635 and derivative SBDPiRs; format: physicochemical
colon-26 tumor model = experiment: In vivo PDT response following SBDPiR690 treatment; set-up: species or system Balb/c mice
Experimental: 25 animals were divided into 4 groups: control, dark control (SBDPiR690 only), light control (light only), and SBDPiR690-with light exposure (PDT). SBDPiR690 was intravenously injected into mice with colon-26 tumor model, followed by light illumination after 15 minutes postinjection using a light dose of 100 mW/cm^2 (FIGS. 28-29). Mice body weight and tumor response at high light doses (˜500 J cm^−2) were used for initial toxicity profiles.

[3] = Singlet oxygen generation, indirect method of DPBF photooxidation; conditions: DPBF photooxidation monitored at 410 nm
Experimental: Singlet oxygen generation and photostability: A singlet oxygen generation experiment on compound 53 using the indirect method of DPBF photooxidation was performed. There were strong similarities of the behavior of 53 towards DPBF with SBDPiR715. […] The photooxidation of DPBF was monitored by UV-vis spectrophotometer at 410 nm. […] Additionally, less than 30% of 53 photobleached under the harsh light illumination condition over a period of an hour, which is a strong evidence for photostability (FIG. 21).

[4] = Drug biodistribution of SBDPiR715; format: in vivo, Balb/c mice; conditions: 5 μmol/kg i.p., 24 hours postinjection
Experimental: Mice were injected via i.p. with SBDPiR715 (5 μmol/kg/3.7 mg/kg). After 24 hours postinjection, the mice (n=3) were euthanized by CO2 inhalation. Tissues were excised from major organs and tumor. Collected tissues were rinsed with PBS and blotted dry. One hundred milligram of excised tissue was homogenized with CHCl3 (1 ml). The homogenates were centrifuged at 5160 g for 20 minutes, and the supernatant was used for fluorescence measurement (excitation at 710 nm and emission at 754 nm). The amount of compound in each sample was evaluated relative to the standard curve and expressed in “mg/g of tissue” unit.

colon-26 tumors = experiment: In vivo SBDPiR715-mediated PDT
Experimental: PS: To obtain an injection solution of SBDPiR715, the emulsifier Tween 80 was used. Tween 80 is a nonionic surfactant, frequently used in vivo as a solubilizing agent for highly lipophilic therapeutics. The formulation procedure required dissolving the PS in a minimal amount of Tween 80 (100 μl). The paste was allowed to stand overnight. 5% Dextrose in phosphate-buffered saline (PBS) solution was added, and the solution was sonicated for 1 hour. The resulting green solution was filtered through a 0.2 μm membrane filter. To ensure the accuracy of the concentration, which might vary due to partial solubility of the PS, the exact concentration was confirmed by UV-visible spectral analysis of the solutions prior to dosing.
Cells and Animal Models: Colon-26 mouse carcinoma cells were obtained from the American Type Culture Collection (ATCC) and cultured in minimum essential medium supplemented with 10% (v/v) fetal calf serum (FCS), 50 U ml^−1 penicillin, 50 μg ml^−1 streptomycin, and 1% (v/v) L-glutamine. The cells were maintained in 5% CO2 (v/v) and 21% O2 (v/v) at 37° C. All animal experiments were approved by IACUC of the University of Oklahoma Health Sciences Center. Female BALB/c mice were received from Charles River at 6-8 weeks old. Balb/c mice were shaved on the upper back and depilated with Nair (Carter-Wallace Inc., New York, N.Y., USA). Mice were anesthetized with an i.p. injection of ketamine/xylazine cocktail (90 mg kg^−1 ketamine and 10 mg kg xylazine). One million colon-26 cells were injected subcutaneously in one dorsal neck area suspended in […] PBS. Tumors grew predictably in all the mice and reached a size of 4- to 6-mm diameter in 5-7 days, or 8-11 mm in 14-16 days after injection, at which time they were used for PDT.
SBDPiR715 in 1% Tween 80-5% Dextrose solvent was injected i.p. at a dose of 3 μmol/kg (2.2 mg/kg) and 5 μmol/kg (3.7 mg/kg) in 0.2 ml solution. Tumors were irradiated 6 hours, 24 hours, or 32 hours after the injection using a Lumacare LC-122M with a fiber-optic light delivery system (Lumacare, Newport Beach, Calif., USA) emitting light at 700 nm (±40 nm). […] No evident temperature increase was detected at the site of irradiation. Mice were anesthetized as described above, and the tumor-bearing limb was positioned under the spot. Total dose of 200-300 mW/cm^2 was delivered for 30 minutes (360-540 J cm^−2). Mice bearing colon-26 tumors were also irradiated without having received injection of SBDPiR715. Another group of animals was treated with SBDPiR715 i.p. without irradiation. After irradiation, mice were allowed to recover in an animal cotton blanket until they resumed normal activity. A positive tumor response was ascribed to tumors that appeared flat blackened or reddened scarp and necrotic tissue within a few days after PDT. Animals were considered cured after complete tumor regression and the absence of a palpable tumor.

SMILES | tissue morphology (H&E) (colon cancer tumors) | clearance from organs and tissue [1] [h] | ε [2] | λabs [2] [nm] | λflu [2] [nm] | palpable tumor (colon-26 tumor model; 60 days post-treatment) | tumor volume (colon-26 tumor model; SBDPiR690-induced PDT) | tumor necrosis (colon-26 tumor model; after 24-72 h, light fluence 150 J cm^−2) | survival (colon-26 tumor model; after 60 days, SBDPiR690-induced PDT) [%] | oedema and inflammation (colon-26 tumor model; after PDT) | body weight (colon-26 tumor model; high light doses (~500 J cm^−2)) | singlet oxygen generation [3] | organ biodistribution [4] | extent of necrosis (colon-26 tumors; 6 and 24 hour drug-light interval) | extent of necrosis (colon-26 tumors; 32 hour drug-light interval) | tumor healing time (colon-26 tumors; after PDT, with remodeling of damaged tissue) [days] | tumor response to PDT (colon-26 tumors; all treatment groups (6, 24, 32 h drug-light interval), monitored for 90 days) | weight loss / visual signs of toxicity (colon-26 tumors; treatment dose 5 μmol/kg (3.7 mg/kg) i.p.) | onset of tumor necrosis after PDT (colon-26 tumors; treatment groups)
F[B-]1(F)n2c(cc3sc(-c4ccccc4)cc32)C(C(F)(F)F)=C2C=c3sc(-c4ccccc4)cc3=[N+]21 [SBDPiR690, 2,8-Di(phenyl)-1-trifluoromethyl-dithieno[2,3-b]-[3,2-g]-5,5-difluoro-5-bora-3a,4a-diaza-s-indacene] | necrosis associated with the treated mice | ≤ 24 | 120 000 M^−1 cm^−1 | 688 | 700 | no palpable tumor observed | elimination of tumors | Mass necrosis localized at the tumor region | 100 | oedema and inflammation was observable after 24 hours, but healed after a few days | fairly constant |  |  |  |  |  |  |  | 
COc1ccc(-c2sc3c(c2Br)=[N+]2C(=C(C(F)(F)F)c4cc5sc(-c6ccc(OC)cc6)c(Br)c5n4[B-]2(F)F)C=3)cc1 [SBDPiR715] |  |  |  |  |  |  |  |  |  |  |  | effective singlet oxygen generation | a higher accumulation of SBDPiR715 was observed in the liver and spleen | necrosis spread to neighboring skin regions | confinement of necrosis to the tumor region | ~30 | complete tumor ablation | No weight loss or other visual signs of toxicity | mass necrosis and eschar within a day
